This passage reports Activity, viability and IC50 results from ChEMBL document CHEMBL5257089, “Gamabufotalin Induces Apoptosis and Cytoprotective Autophagy through the mTOR Signaling Pathway in Hepatocellular Carcinoma” (J Nat Prod, 2023).

Active and inactive are the calls of the source. No cut-off for these calls is given here.

For data set [1], the system named is Hep 3B2. The data set can be described thus: Induction of apoptosis in human Hep3B cells assessed as early apoptotic cells at 10 nM incubated for 48 hrs in presence of gamabufotalin by Annexin V-FITC/PI staining based flow cytometry method (reference value: 1.3%). It is filed as functional. (In flow cytometry, cells or beads pass a laser one at a time.)
Data set [2] has as its system Huh-7. The data set is described as follows: Induction of apoptosis in human Huh-7 cells assessed as viable cells at 10 nM incubated for 48 hrs in presence of gamabufotalin by Annexin V-FITC/PI staining based flow cytometry method (reference value: 91.5%). The settings on record: read-out: Activity. Type of data set: functional.
The test system of data set [3] is Hep 3B2. The data set can be described thus: Induction of apoptosis in human Hep3B cells assessed as increase in bax level at 10 nM incubated for 48 hrs in presence of gamabufotalin by immunoblot analysis. Type of data set: functional, cell-based. In general terms: Immunoblotting shows a protein as a band on a membrane.
For data set [4], the system named is Hep 3B2. The data set is described as follows: Induction of autophagic flux in human Hep3B cells harbouring mCherry-egfp-LC3 assessed as reduction in number of red puncta ratio at 10 nM incubated for 15 mins in presence of gamabufotalin by laser scanning confocal microscopic analysis. Type of data set: functional, cell-based.
For data set [5], the system named is Huh-7. The data set can be described thus: Induction of apoptosis in human Huh-7 cells assessed as early apoptotic cells at 10 nM incubated for 48 hrs in presence of gamabufotalin by Annexin V-FITC/PI staining based flow cytometry method (reference value: 2.8%). Type of data set: functional.
Data set [6] deals with Huh-7. The data set is described as follows: Induction of apoptosis in human Huh-7 cells assessed as increase in caspase-3 level at 10 nM incubated for 48 hrs in presence of gamabufotalin by immunoblot analysis. It is filed as functional, cell-based.
Data set [7] deals with Huh-7. The data set is described as follows: Induction of autophagy in human Huh-7 cells assessed as rescue of ULK1 phosphorylation level at upto 10 nM incubated for 48 hrs in presence of gamabufotalin by immunoblot method. Type of data set: functional, cell-based.
In data set [8] the test system is Huh-7. The data set is described as follows: Induction of apoptosis in human Huh-7 cells assessed as increase in cleaved PARP level at 10 nM incubated for 48 hrs in presence of gamabufotalin by immunoblot analysis. It is filed as functional, cell-based.
The test system of data set [9] is Huh-7. The data set can be described thus: Induction of autophagic flux in human Huh-7 cells assessed as rescue of p62 at 10 uM incubated for 48 hrs in presence of gamabufotalin by Western blot analysis. It is filed as functional, cell-based.
Data set [10] deals with Huh-7. The data set is described as follows: Induction of autophagic flux in human Huh-7 cells harbouring mCherry-egfp-LC3 assessed as increase in red puncta at 25 nM incubated for 15 mins by laser scanning confocal microscopic analysis. It is filed as functional, cell-based.
Data set [11] concerns Hep 3B2. The data set is described as follows: Induction of apoptosis in human Hep3B cells assessed as necrotic cells at 20 nM incubated for 48 hrs by Annexin V-FITC/PI staining based flow cytometry method (reference value: 0.2%). Type of data set: functional.
Data set [12] relates to Hep 3B2. The data set is described as follows: Antiproliferative activity against human Hep3B cells assessed as cell viability incubated for 24 hrs by CCK-8. Type of data set: functional, cell-based.
Data set [13] concerns Huh-7. The data set can be described thus: Induction of apoptosis in human Huh-7 cells assessed as early apoptotic cells at 25 nM incubated for 48 hrs by Annexin V-FITC/PI staining based flow cytometry method (reference value: 4.3%). It is filed as functional.
Data set [14] relates to Huh-7. The data set is described as follows: Induction of apoptosis in human Huh-7 cells assessed as necrotic cells at 15 nM incubated for 48 hrs by Annexin V-FITC/PI staining based flow cytometry method (reference value: 95.4%). Type of data set: functional.
Data set [15] concerns Hep 3B2. The data set can be described thus: Antitumor activity against human Hep3B cells xenografted in nude mouse model assessed as downregulation of P62 expression at 5 mg/kg,ip administered every second day for 3 weeks by Western blot analysis. It is filed as functional, organism-based. For orientation: Xenograft models place foreign cells or tissue in a host animal.
Data set [16] relates to Hep 3B2. The data set is described as follows: Induction of apoptosis in human Hep3B cells assessed as late apoptotic cells at 25 nM measured after 48 hrs in presence of Z-VAD-FMK by annexin V-FITC/Propidium iodide staining based flow cytometric analysis (reference value: 2.4%). It is filed as functional.
Data set [17] concerns Huh-7. The data set can be described thus: Induction of apoptosis in human Huh-7 cells assessed as necrotic cells at 25 nM incubated for 48 hrs in presence of 4,6-dimorpholino-N-(4-nitrophenyl)-1,3,5-triazin-2-amine by Annexin V-FITC/PI staining based flow cytometry method (reference value: 1.9%). It is filed as functional.
Data set [18] concerns Huh-7. The data set is described as follows: Induction of autophagy in human Huh-7 cells assessed as rescue of mTOR phosphorylation level at upto 25 nM incubated for 48 hrs in presence of chloroquine by immunoblot method. Type of data set: functional, cell-based.
For data set [19], the system named is Huh-7. The data set is described as follows: Induction of apoptosis in human Huh-7 cells assessed as increase in PARP level at 25 nM incubated for 48 hrs in presence of chloroquine by immunoblot analysis. Type of data set: functional, cell-based.
Data set [20] deals with Huh-7. The data set can be described thus: Induction of apoptosis in human Huh-7 cells assessed as increase in caspase-3 level at 25 nM incubated for 48 hrs in presence of chloroquine by immunoblot analysis. Type of data set: functional, cell-based.
The test system of data set [21] is Huh-7. The data set is described as follows: Induction of apoptosis in human Huh-7 cells assessed as late apoptotic cells at 25 nM measured after 48 hrs in presence of z-VAD-FMK by annexin V-FITC/Propidium iodide staining based flow cytometric analysis (reference value: 6.1%). Type of data set: functional.
In data set [22] the test system is Huh-7. The data set can be described thus: Induction of apoptosis in human Huh-7 cells assessed as necrotic cells at 15 nM incubated for 48 hrs by Annexin V-FITC/PI staining based flow cytometry method (reference value: 0.7%). Type of data set: functional.
Data set [23] relates to Hep 3B2. The data set is described as follows: Induction of autophagic flux in human Hep3B cells assessed as rescue of LC3-II accumulation at 25 uM incubated for 48 hrs in presence of chloroquine by Western blot analysis. Type of data set: functional, cell-based.
The test system of data set [24] is Huh-7. The data set can be described thus: Induction of autophagy in human Huh-7 cells harbouring mCherry-egfp-LC3 assessed as reduction in red puncta ratio at 25 nM incubated for 15 mins in presence of 4,6-dimorpholino-N-(4-nitrophenyl)-1,3,5-triazin-2-amine by laser scanning confocal microscopic analysis. It is filed as functional, cell-based.
Data set [25] deals with Hep 3B2. The data set is described as follows: Induction of apoptosis in human Hep3B cells assessed as viable cells at 25 nM measured after 48 hrs by annexin V-FITC/Propidium iodide staining based flow cytometric analysis (reference value: 95.6%). It is filed as functional. The settings on record: read-out: Activity.
The subject of data set [26] is Hep 3B2. The data set can be described thus: Induction of apoptosis in human Hep3B cells assessed as late apoptotic cells at 25 nM incubated for 48 hrs by Annexin V-FITC/PI staining based flow cytometry method (reference value: 2.2%). It is filed as functional.
Data set [27] concerns Huh-7. The data set can be described thus: Induction of autophagic flux in human Huh-7 cells harbouring mCherry-egfp-LC3 assessed as reduction in number of red puncta ratio at 25 nM incubated for 15 mins in presence of chloroquine by laser scanning confocal microscopic analysis. It is filed as functional, cell-based.
The test system of data set [28] is Huh-7. The data set can be described thus: Induction of autophagy in human Huh-7 cells harbouring mCherry-egfp-LC3 assessed as reduction in yellow puncta ratio at 25 nM incubated for 15 mins in presence of 4,6-dimorpholino-N-(4-nitrophenyl)-1,3,5-triazin-2-amine by laser scanning confocal microscopic analysis. It is filed as functional, cell-based.
Data set [29] concerns Huh-7. The data set is described as follows: Induction of apoptosis in human Huh-7 cells assessed as viable cells at 25 nM incubated for 48 hrs by Annexin V-FITC/PI staining based flow cytometry method (reference value: 91.5%). Type of data set: functional. Conditions: read-out: Activity.
Data set [30] relates to Huh-7. The data set is described as follows: Induction of apoptosis in human Huh-7 cells assessed as fragmented nuclei at upto […] incubated for 48 hrs by Hoechst33258 staining based fluorescence microscopy. It is filed as functional, cell-based.
Data set [31] in a line: Toxicity in mouse assessed as effect on serum CERA level at 5 mg/kg,ip administered every second day for 3 weeks by H and E staining based microscopic method. Type of data set: organism-based. The settings on record: in vivo, 504 h.
The test system of data set [32] is Hep 3B2. The data set can be described thus: Induction of autophagy in human Hep3B cells assessed as reduction in ULK1 phosphorylation level incubated for 48 hrs by immunoblot method. Type of data set: functional, cell-based. Conditions: dose 0-25 nM.
Data set [33] can be described thus: Toxicity in mouse assessed as effect on serum ALT level at 5 mg/kg,ip administered every second day for 3 weeks by H and E staining based microscopic method. It is filed as organism-based. Conditions: in vivo, 504 h.

As to `CCN(CC)CCCC(C)Nc1ccnc2cc(Cl)ccc12` (stereo not drawn) [CHLOROQUINE], the Activity in the data set with Hep 3B2 [1] is 17.9%; in the data set on Huh-7 [5] it was 12.1%. Further, the viability at 0.01 µM in the data set with Huh-7 [2] came to 65.4%. For the same compound, the result in the data set with Hep 3B2 [3], in the data set on Hep 3B2 [4], in the data set on Huh-7 [6], in the data set on Huh-7 [7], with Huh-7 [8] and with Huh-7 [9] was Active.

For `C[C@]12CC[C@H](O)C[C@H]1CC[C@@H]1[C@@H]2[C@H](O)C[C@]2(C)[C@@H](c3ccc(=O)oc3)CC[C@]12O` [GAMABUFOTALIN], the outcome in the data set on Huh-7 [10], with Hep 3B2 [15], with Huh-7 [18], with Huh-7 [19], in the data set with Huh-7 [20] and in the data set on Hep 3B2 [23] was Active. The outcome in the data set with Huh-7 [24], with Huh-7 [27], with Huh-7 [28] and in the data set with Huh-7 [30] was Active. Moreover, the Activity in the data set on Hep 3B2 [11] was determined as 0.3%; in the data set on Huh-7 [13] it was 8.7%; with Huh-7 [14], 67.6%; with Hep 3B2 [16], 3.5%; with Huh-7 [17], 1.7%; with Huh-7 [21] it was 7.4%. The Activity was 4% with Huh-7 [22]; 10.9% in the data set with Hep 3B2 [26]; “Non-Toxic” in [31]; “Dose-Dependent Effect” with Hep 3B2 [32]; “Non-Toxic” in [33]. Besides, in the data set on Hep 3B2 [12], the IC50 – broadly, the concentration at which inhibition is half-maximal – amounted to 0.027 µM. Moreover, the viability at 0.025 µM with Hep 3B2 [25] amounted to 79.6%; in the data set on Huh-7 [29], 80%.
